target: T1, Cbl-b (Homo sapiens, UniProt Q13191); assay: Cbl-b LCK Ub TR-FRET assay; assay type: biochemical; settings: Biotin-Cbl-b, His-LCK; no LCK as low control, DMSO as high control; IC50s binned A through C; read-out: CBL-B_TR-FRET_AVG_IC50
T1 construct: Biotin (biotinylated protein)
Method: Compounds are 3-told serially diluted in DMSO in a 384-well polypropylene plate (e.g., #P-05525-BC; Labcyte) to generate a source plate with 10 concentrations of each compound, top concentration=2 mM. 80 nL of DMSO or compounds are transferred to each well of a black 384-well ProxiPlate (e.g., #6008260; PerkinElmer) using a Labcyte Echo. 1× assay buffer (50 mM HEPES pH7.0, 100 mM NaCl, 0.01% BSA, 0.01% Triton-X100, 1 mM DTT), 2× enzyme solution (16 nM Biotin-Cbl-b or 12 nM Biotin-c-Cbl in 1× assay buffer), 2× kinase mixture (120 nM His-LCK, 1 mM ATP, 10 mM MgCl2 in assay buffer) and 2.33× detection mixture (4.66× solution 1:163 nM Anti-HA-D2 antibody (e.g., #610HADAB; PerkinElmer), 27.96 nM Streptavidin-EU (e.g., #AD0062; PerkinElmer), 1.398 mM EDTA in 1× assay buffer+4.66× solution 2: […] UBE2D2/Methylated-HA-Ubiquitin thioester adduct (e.g., BostonBiochem) in 1× assay buffer) are prepared. […] of 2× enzyme solution are added to each well containing compound, briefly centrifuged to mix, and incubated for 60 min at room temperature. […] of 2× kinase mixture is added, briefly centrifuged to mix, and incubated for 90 min. at room temperature. […] of detection mixture is added to all wells and briefly centrifuged before incubating for 20 min at room temperature. Plates are read for TR-FRET using an Envision at excitation 340 nm, emission at 615 and 665 nm, 4 flashes per well. IC50 is generated using no LCK as the low control and DMSO as the high control. Compound IC50s were binned into A through C as follows: A indicates <100 nM, B indicates 100 nM-500 nM, and C indicates >500 nM.

T1 sequence (Q13191 10-426): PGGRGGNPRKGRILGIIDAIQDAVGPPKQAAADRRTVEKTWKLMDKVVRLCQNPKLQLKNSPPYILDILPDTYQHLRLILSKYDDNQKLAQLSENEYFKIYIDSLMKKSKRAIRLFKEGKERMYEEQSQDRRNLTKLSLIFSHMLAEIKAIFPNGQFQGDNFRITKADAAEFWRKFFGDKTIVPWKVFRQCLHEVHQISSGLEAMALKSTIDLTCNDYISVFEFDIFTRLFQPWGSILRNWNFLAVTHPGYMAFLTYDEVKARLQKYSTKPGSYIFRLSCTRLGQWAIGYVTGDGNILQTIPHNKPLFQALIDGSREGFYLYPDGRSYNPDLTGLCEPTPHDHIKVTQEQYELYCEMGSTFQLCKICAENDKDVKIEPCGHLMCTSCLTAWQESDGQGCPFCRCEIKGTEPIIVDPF

`C[C@H]1CCCN(Cc2cc(C(F)(F)F)c3cn(-c4cc(-c5ccc(F)cc5-c5nncn5C)cc(Cl)n4)c(=O)n3c2)C1` [Compound 3] and `C[C@H]1CCCN(Cc2cc(C(F)(F)F)c3cn(-c4cc(-c5ccc(F)cc5-c5nncn5C)cc(Br)n4)c(=O)n3c2)C1` [Compound 4] cannot be ordered by IC50: greater than 500 nM for the first, greater than 500 nM for the second.

Compared with `Cn1cnnc1-c1cc(F)ccc1-c1cccc(-n2cc3c(C(F)(F)F)cc(CNCC4(O)CCC4)cn3c2=O)c1` [Compound 1], `C[C@H]1CCCN(Cc2cc(C(F)(F)F)c3cn(-c4cc(-c5ccc(F)cc5-c5nncn5C)cc(C5CC5)n4)c(=O)n3c2)C1` [Compound 2] is higher in IC50: less than 100 nM for the first, greater than 500 nM for the second. The first is the more potent here.
